Measurements reported in PMC3836617 (Pharmaceutics, 2013).
“And” between values parts separate entries of the source, which are not always exact repeats. Identical values can stand only once. Like-named read-outs stand apart in the source and are kept apart here. Each block holds one compound with its values, some of them ahead of it.

Experiments:
[1] = for Permeated amount after 12 h: full-thickness skin preincubated with 2 mM BNPP 1 h
Description: (§3) Fresh excised abdominal skin was used for these experiments. To strip skin, stratum corneum was removed by 20 successive strippings using cellophane adhesive tape (Nichiban K.K., Japan) according to conventional methods. The excised skin was mounted between half-cells with the dermal side in contact with receptor fluid (pH 6.8 phosphate-buffered saline (PBS) with 3% BSA). Receptor fluid flow rate was 5 mL/h. Two milliliters of drug suspension (drug amount = twice the amount required for saturation) in pH 4.0 acetate buffer was added to the donor chamber.
In an inhibition study for CES, skin mounted between the half-cells was preincubated with the dermal side in contact with 2 mM BNPP (dissolved in pH 6.8 PBS containing 3% BSA) for 1 h.
(§4) The in vitro permeation parameters were calculated from the penetration data using the following equations: Js = (KmDC)/δ = KpC and τ = δ^2/6D, where Js is steady state flux, Km is the solvent membrane partition coefficient of drug, D is diffusion coefficient, C is drug concentration in donor chamber, δ is thickness of rat skin, Kp is the permeability coefficient of drug, and τ represents lag time.

[2] = cited from earlier work
[3] = for Permeated amount after 12 h: labelled species found in receptor fluid
Description: as §3, §4

[4] = Nonenzymatic hydrolysis of caproyl-PL to PL in buffer; assay type: physicochemical
Description: Hydrolysis was greater under basic buffer conditions […]. […] The hydrolysis of caproyl-PL was <0.05% during the sampling period (1 h) at pH 6.8 in PBS containing 3% BSA.

[5] = Hydrolysis in rat skin S9 fraction; assay type: in vitro ADME; details: for Hydrolysis in skin S9 relative to liver microsomes (slower) / Vmax in skin S9 relative to liver microsomes (smaller) / Vmax/Km in skin S9 relative to liver microsomes (smaller): skin S9 vs liver microsomes
Description: After hair was carefully clipped and shaved, rats were sacrificed by exsanguination under ether anesthesia. Abdominal and dorsal skin was removed using a scalpel and dissection scissors. A few pieces of skin were stored in liquid nitrogen for extraction of total RNA. The skin was minced, mixed with five volumes of ice-cold 4-(2-hydroxyethyl)-1-piperazineethanesulfonic acid (HEPES) buffer (50 mM, pH 7.4) containing 0.15 M KCl, and homogenized using a Polytron (Kinematica, Lucerne, Switzerland) on ice. Whole homogenate was filtered through a funnel containing buffer-soaked cotton wool. After centrifugation of the skin homogenate at 9000g for 20 min at 4 °C, the supernatant fraction (S9) was obtained. Protein content was determined by the method described by Bradford using bovine serum albumin (BSA) as standard. The skin S9 was stored at −80 °C until use.
(§1) Hydrolysis of PNPA, PNPB, and caproyl-PL were performed in S9 and microsomal fractions of rat liver, testis, kidney and skin. Tissue samples were diluted with 50 mM HEPES (pH 7.4) buffer at appropriate protein concentrations and preincubated for 5 min at 37 °C. The hydrolysis reaction was initiated by the addition of test compounds dissolved in dimethyl sulfoxide (DMSO). The final concentration of DMSO was less than 0.5%, which has no effect on hydrolytic activity. The rate of hydrolysis of PNPA and PNPB (final concentrations 15–500 μM) was determined by the initial linear increase in absorbance of p-nitrophenol at 405 nm (V-530, JASCO Co., Tokyo, Japan).
For the hydrolysis of caproyl-PL, the reaction was terminated by addition of 5 mL ethylacetate. After extraction of PL, as previously described, stereoselective determination was carried out using high-performance liquid chromatography (HPLC).

[6] = Hydrolysis in rat kidney microsomes; assay type: in vitro ADME; details: pH 7.4; for Vmax: kidney microsomes; for Km: kidney microsomes 10 μg/mL
Description: (§2) The excised liver, kidney, and testis were washed with ice-cold 0.15 M KCl, and finely minced using scissors. Minced tissues were homogenized with 3 volumes of 50 mM HEPES buffer (pH 7.4) containing 0.15 M KCl in a Potter–Elvehjem glass homogenizer equipped with a Teflon pestle under ice-cold conditions. Homogenates (25% wet w/v) were centrifuged at 9000g for 20 min at 4 °C, to give the S9 fraction. S9 fraction was further centrifuged at 100,000g for 1 h at 4 °C. The resulting pellets were resuspended in 50 mM HEPES buffer (pH 7.4) containing 0.15 M KCl to prepare the microsomal fraction. Protein concentrations were determined by the method of Bradford using BSA as standard. S9 and the microsomal fraction were stored at −80 °C until use.
as §1

[7] = Hydrolysis in rat testis microsomes; assay type: in vitro ADME; details: pH 7.4; for Km: testis microsomes 10 μg/mL for PNPA, 5 μg/mL for PNPB; for Vmax: testis microsomes
Description: as §2, §1

[8] = Hydrolysis in rat liver microsomes; assay type: in vitro ADME; details: pH 7.4; for Vmax: liver microsomes; for Km: liver microsomes 20 μg/mL for PNPA, 10 μg/mL for PNPB
Description: as §2, §1

esterases of rat skin S9 = assay: Native PAGE esterase activity staining of rat skin S9 with 1-naphthylacetate; assay type: biochemical; details: native PAGE stained with 1-naphthylacetate
[9] = after application of caproyl-PL, labelled species, stripped skin
[10] = after application of caproyl-PL, total, stripped skin
[11] = after application of caproyl-PL, labelled species
[12] = after application of caproyl-PL, labelled species, full-thickness skin with BNPP
[13] = after application of caproyl-PL, total, full-thickness skin with BNPP
[14] = after application of caproyl-PL, full-thickness skin, n = 6
[15] = after application of caproyl-PL, labelled species, full-thickness skin
[16] = after application of caproyl-PL, total of caproyl-PL and PL, full-thickness skin
[17] = caproyl-PL applied to full-thickness skin
[18] = after application of PL, stripped skin
[19] = after application of PL, full-thickness skin with BNPP
[20] = after application of PL, full-thickness skin
[21] = hydrolysis, skin S9 300 μg/mL, 50 mM HEPES pH 7.4

SMILES: O=[N+]([O-])c1ccc(OP(=O)(O)Oc2ccc([N+](=O)[O-])cc2)cc1 [BNPP, bis-p-nitrophenyl phosphate]
PL conversion from caproyl-PL after treatment with BNPP ([1]; 2 mM BNPP on receiver side for 1 h, full-thickness skin): markedly decreased

SMILES: CCCCCC(=O)OC(CNC(C)C)COc1cccc2ccccc12.Cl (stereo not drawn) [Caproyl-PL, O-caproyl-PL hydrochloride]
log PC ([2]; between 1-octanol and pH 4.0 phosphate buffer, method and reference not given): 2.3 | pKa ([2]; stated in discussion, method and reference not given): 9.1 | Constant concentration in donor compartment (suspension) ([2]; suspension in pH 4.0 acetate buffer): 6.4 mM | Steady-state flux and Kp values of intact caproyl-PL in stripped skin relative to full-thickness skin (greater) (after application of caproyl-PL): 6 fold | Lag time [9]: 4.7 ± 1.7 h | Permeated amount after 12 h [9]: 12 ± 13 nmol | Skin concentration at 12 h [9]: 3,200 ± 580 nmol/g tissue | Steady state flux [9]: 2.4 ± 0.98 nmol/h | Skin concentration at 12 h (after application of caproyl-PL, labelled species, stripped skin, listed as caproyl-PL): 3200 ± 580 nmol/g tissue | Permeated amount after 12 h, Total (after application of caproyl-PL, total of caproyl-PL and PL, stripped skin): 200 ± 50 nmol | Lag time, Total [10]: 3.6 ± 0.43 h | Skin concentration at 12 h, Total [10]: 4,100 ± 600 nmol/g tissue | Steady state flux, Total [10]: 23 ± 5.5 nmol/h | Permeation clearance from viable skin to receptor fluid (calculated from steady-state flux and cutaneous concentration in stripped skin): 0.75 mg tissue/h | Concentration of caproyl-PL in stripped skin relative to Km value (higher) (vs Km in skin S9): 160 fold | Permeated amount after 12 h [1, 11]: 3.9 ± 3.4 nmol | Lag time [1, 12]: 8.3 ± 1.2 h | Skin concentration at 12 h [1, 12]: 2,100 ± 220 nmol/g tissue | Steady state flux [1, 12]: 0.83 ± 0.65 nmol/h | Lag time, Total [1, 13]: 6.4 ± 0.92 h | Permeated amount after 12 h, Total [1, 13]: 25 ± 21 nmol | Skin concentration at 12 h, Total [1, 13]: 2,200 ± 230 nmol/g tissue | Steady state flux, Total [1, 13]: 4.1 ± 3.1 nmol/h | Permeated amount, steady state flux and Kp value of intact caproyl-PL, increase by treatment with BNPP ([1]; full-thickness skin with vs without BNPP): 2 fold | Skin concentration of caproyl-PL relative to PL (higher) ([3]; 12 h after dosing caproyl-PL, full-thickness skin): 3.5 fold | Permeated amount after 12 h [3, 14]: 1.7 ± 1.4 nmol | Lag time [3, 15]: 7.0 ± 0.78 h | Skin concentration at 12 h [3, 15]: 1,900 ± 630 nmol/g tissue | Steady state flux [3, 15]: 0.40 ± 0.28 nmol/h | Skin concentration at 12 h ([3]; after application of caproyl-PL, labelled species, full-thickness skin, listed as caproyl-PL): 1900 ± 630 nmol/g tissue | Lag time, Total [3, 16]: 4.9 h and 4.9 ± 1.1 h | Permeated amount after 12 h, Total [3, 16]: 140 ± 33 nmol | Skin concentration at 12 h, Total [3, 16]: 2,400 ± 780 nmol/g tissue | Steady state flux, Total [3, 16]: 20 ± 6.1 nmol/h | Predicted concentration of caproyl-PL in viable epidermis and dermis ([3]; after application to full-thickness skin, estimated from flux and permeation clearance): about 500 nmol/g tissue | Dose retained in the stratum corneum [3, 17]: 75% | Dose transferred into viable skin [3, 17]: 25% | Predicted concentration in viable epidermis and dermis relative to Km value (higher) ([3]; full-thickness skin): 25 fold | Nonenzymatic hydrolysis of caproyl-PL to PL ([4]; in 12 h, pH 4.0 acetate buffer): < 0.1% | Nonenzymatic hydrolysis of caproyl-PL ([4]; sampling period 1 h, pH 6.8 PBS containing 3% BSA): < 0.05% | Vmax ([5]; hydrolysis of caproyl-PL in rat skin S9): 9.24 ± 2.95 nmol/min/mg S9 protein | Km ([5]; hydrolysis of caproyl-PL in rat skin S9, read-out: Km value): 19.7 ± 5.36 µM | Hydrolysis in skin S9 relative to liver microsomes (slower) [5]: 20 fold

SMILES: CC(C)NCC(O)COc1cccc2ccccc12 (stereo not drawn) [PL, propranolol]
Amount permeated after 12 h [18]: 17,000 ± 3,600 nmol | Lag time [18]: 1.4 ± 0.36 h | Skin concentration at 12 h [18]: 6,900 ± 3,700 nmol/g tissue | Lag time [9]: 3.6 ± 0.38 h | Permeated amount after 12 h [9]: 190 ± 55 nmol | Skin concentration at 12 h [9]: 870 ± 44 nmol/g tissue | Steady state flux [9]: 22 ± 6.4 nmol/h | Amount permeated after 12 h [1, 19]: 2,600 ± 990 nmol | Lag time [1, 19]: 0.84 ± 0.24 h | Skin concentration at 12 h [1, 19]: 9,900 ± 590 nmol/g tissue | Steady state flux [1, 19]: 240 ± 87 nmol/h | Permeated amount after 12 h [1, 11]: 21 ± 18 nmol | Lag time [1, 12]: 6.3 ± 0.93 h | Skin concentration at 12 h [1, 12]: 130 ± 7.7 nmol/g tissue | Steady state flux [1, 12]: 3.5 ± 2.6 nmol/h | Lag time [3, 20]: 1.5 ± 0.56 h | Skin concentration at 12 h [3, 20]: 9,400 ± 380 nmol/g tissue | Steady state flux [3, 20]: 240 ± 94 nmol/h | Amount permeated after 12 h ([3]; after application of PL, full-thickness skin, n = 6): 2,600 ± 970 nmol | Permeated amount after 12 h [3, 14]: 140 ± 35 nmol | Lag time [3, 15]: 4.9 ± 1.1 h | Skin concentration at 12 h [3, 15]: 550 ± 120 nmol/g tissue | Steady state flux [3, 15]: 20 ± 6.2 nmol/h

SMILES: CCN(CC)C(C)CN1c2ccccc2Sc2ccccc21 (stereo not drawn) [ethopropazine]
Inhibition of formation of esterase bands of skin S9 (esterases of rat skin S9): not inhibited

More lines, main results first:

Km ([6]; rat): 268 ± 83.8 µM | Km ([7]; male, rat): 34.6 ± 1.27 µM | Km ([8]; rat): 57 ± 18.2 µM | Km ([5]; rat, skin S9 fraction, hydrolysis, skin S9 300 μg/mL, 50 mM HEPES pH 7.4, 37 °C, mean ± S.D. (n = 3/4), read-out: Km): 55.5 ± 8.18 µM | Hydrolysis in skin S9 relative to liver microsomes (slower) [5]: around 20 fold | Vmax in skin S9 relative to liver microsomes (smaller) [5]: 19 fold | Vmax/Km in skin S9 relative to liver microsomes (smaller) [5]: 21 fold
SMILES: CC(=O)Oc1ccc([N+](=O)[O-])cc1 [PNPA, p-nitrophenylacetate]
Vmax [6]: 2,432 ± 497 nmol/min/mg protein | Vmax [7]: 1,606 ± 333 nmol/min/mg protein | Vmax [8]: 3,570 ± 810 nmol/min/mg protein | Vmax [5, 21]: 188 ± 30.3 nmol/min/mg protein

Km [6]: 97 ± 16.6 µM | Km [7]: 63.4 ± 13.9 µM | Km [8]: 37.1 ± 9.42 µM | Km ([5]; hydrolysis, skin S9 300 μg/mL, 50 mM HEPES pH 7.4, 37 °C, mean ± S.D. (n = 3/4), read-out: Km): 97.1 ± 30.2 µM | Hydrolysis in skin S9 relative to liver microsomes (slower) [5]: around 20 fold | Vmax in skin S9 relative to liver microsomes (smaller) [5]: 9 fold | Vmax/Km in skin S9 relative to liver microsomes (smaller) [5]: 24 fold
SMILES: CCCC(=O)Oc1ccc([N+](=O)[O-])cc1 [PNPB, p-nitrophenylbutyrate]
Vmax [6]: 994 ± 286 nmol/min/mg protein | Vmax [7]: 2,978 ± 398 nmol/min/mg protein | Vmax [8]: 4,220 ± 521 nmol/min/mg protein | Vmax [5, 21]: 460 ± 127 nmol/min/mg protein
